{"source": "ChEMBL document CHEMBL4715826", "about": "“Selective PPARδ Modulators Improve Mitochondrial Function: Potential Treatment for Duchenne Muscular Dystrophy (DMD)” (ACS Med Chem Lett, 2018)", "key": {"[1]": {"biological_target": "T1, Peroxisome proliferator-activated receptor alpha (Homo sapiens, UniProt Q07869)", "T1 sequence (Q07869 whole entry)": "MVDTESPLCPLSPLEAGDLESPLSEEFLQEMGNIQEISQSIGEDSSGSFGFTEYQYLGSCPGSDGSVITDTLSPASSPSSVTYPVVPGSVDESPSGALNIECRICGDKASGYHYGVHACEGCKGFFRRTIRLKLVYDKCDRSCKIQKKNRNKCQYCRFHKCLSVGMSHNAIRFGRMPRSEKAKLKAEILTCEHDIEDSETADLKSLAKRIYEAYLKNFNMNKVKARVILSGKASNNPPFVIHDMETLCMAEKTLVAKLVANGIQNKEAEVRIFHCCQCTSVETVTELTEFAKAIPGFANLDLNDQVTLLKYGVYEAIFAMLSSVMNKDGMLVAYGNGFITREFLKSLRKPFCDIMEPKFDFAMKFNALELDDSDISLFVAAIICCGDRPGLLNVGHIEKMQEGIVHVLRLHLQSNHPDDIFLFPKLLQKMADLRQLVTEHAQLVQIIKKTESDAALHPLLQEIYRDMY", "experiment": "Modulator activity at GAL4-fused human PPARalpha LBD (unknown origin) transfected in African green monkey CV1 cells assessed as receptor transactivation by luciferase reporter gene assay", "format": "cell-based, CV-1"}, "[2]": {"biological_target": "T2, Peroxisome proliferator-activated receptor gamma (Homo sapiens, UniProt P37231)", "T2 sequence (P37231 whole entry)": "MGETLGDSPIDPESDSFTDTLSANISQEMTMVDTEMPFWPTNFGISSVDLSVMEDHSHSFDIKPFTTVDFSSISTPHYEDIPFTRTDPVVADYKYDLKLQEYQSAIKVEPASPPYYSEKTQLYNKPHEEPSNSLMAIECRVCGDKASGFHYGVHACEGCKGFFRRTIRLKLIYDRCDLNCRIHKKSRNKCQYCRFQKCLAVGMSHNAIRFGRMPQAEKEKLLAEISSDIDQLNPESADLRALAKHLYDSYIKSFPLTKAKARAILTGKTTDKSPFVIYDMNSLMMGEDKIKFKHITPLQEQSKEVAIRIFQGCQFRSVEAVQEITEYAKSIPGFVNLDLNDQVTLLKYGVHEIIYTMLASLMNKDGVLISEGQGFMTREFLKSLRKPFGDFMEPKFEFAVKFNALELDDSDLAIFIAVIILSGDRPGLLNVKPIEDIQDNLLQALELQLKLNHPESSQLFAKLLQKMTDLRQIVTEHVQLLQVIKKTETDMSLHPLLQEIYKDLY", "experiment": "Modulator activity at GAL4-fused human PPARgamma LBD (unknown origin) transfected in African green monkey CV1 cells assessed as receptor transactivation by luciferase reporter gene assay", "format": "cell-based, CV-1"}, "[3]": {"experiment": "Half life in CD-1 mouse at 3 mg/kg, iv", "format": "ADME, organism-based", "settings": "in vivo"}, "[4]": {"experiment": "Selectivity index, ratio of EC50 for transactivation of GAL4-fused PPARalpha LBD (unknown origin) transfected in CV1 cells to EC50 for transactivation of GAL4-fused human PPARdelta LBD (128 to residue at C-terminus) transfected in African green monkey CV1 cells by luciferase reporter gene assay"}, "[5]": {"biological_target": "T3, Peroxisome proliferator-activated receptor delta (Homo sapiens, UniProt Q03181)", "T3 sequence (Q03181 whole entry)": "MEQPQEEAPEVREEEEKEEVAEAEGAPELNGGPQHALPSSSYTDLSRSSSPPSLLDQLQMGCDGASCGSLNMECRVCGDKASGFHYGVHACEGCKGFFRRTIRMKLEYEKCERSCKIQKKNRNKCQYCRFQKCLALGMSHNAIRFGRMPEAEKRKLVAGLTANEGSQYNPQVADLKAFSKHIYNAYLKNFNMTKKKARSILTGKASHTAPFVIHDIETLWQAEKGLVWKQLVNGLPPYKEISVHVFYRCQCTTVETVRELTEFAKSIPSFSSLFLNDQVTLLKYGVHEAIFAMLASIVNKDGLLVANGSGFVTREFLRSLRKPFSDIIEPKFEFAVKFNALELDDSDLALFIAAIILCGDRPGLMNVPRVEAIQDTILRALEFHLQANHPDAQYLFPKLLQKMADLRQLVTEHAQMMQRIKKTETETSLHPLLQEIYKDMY", "description": "Modulator activity at GAL4-fused human PPARdelta LBD (128 to residue at C-terminus) transfected in African green monkey CV1 cells assessed as receptor transactivation by luciferase reporter gene assay"}, "[6]": {"experiment": "AUC in CD-1 mouse at 3 mg/kg, iv", "format": "ADME, organism-based", "set-up": "dose 3 mg/kg", "settings": "in vivo"}, "[7]": {"experiment": "Clearance in CD-1 mouse at 3 mg/kg, iv", "format": "ADME, organism-based", "settings": "in vivo"}, "[8]": {"experiment": "AUC in CD-1 mouse at 1 mg/kg, iv", "format": "ADME, organism-based", "set-up": "dose 1 mg/kg", "settings": "in vivo"}, "[9]": {"experiment": "Half life in CD-1 mouse at 1 mg/kg, iv", "format": "ADME, organism-based", "settings": "in vivo"}}}
{"smiles": "Cc1cnc(-c2ccc(OC(F)F)cc2)n1Cc1ccccc1OCCC[C@@H](C)CC(=O)O", "values": [{"measurement": "EC50", "setting": "[1]", "result": 15.1, "unit": "µM"}, {"measurement": "EC50", "setting": "[2]", "result": "> 10", "unit": "µM"}]}
{"smiles": "C/C(=C\\COc1ccccc1Cc1c(C)ncn1-c1ccc(-c2ccco2)cc1)CCC(=O)O", "values": [{"measurement": "half-life", "setting": "[3]", "result": 42, "unit": "min"}, {"measurement": "Ratio EC50", "setting": "[4]", "result": ">1000"}, {"measurement": "EC50", "setting": "[5]", "result": 0.059, "unit": "µM"}, {"measurement": "AUC", "setting": "[6]", "result": 70, "unit": "ng·h/mL"}, {"measurement": "clearance", "setting": "[7]", "result": 720, "unit": "mL/min/kg"}, {"measurement": "EC50", "setting": "[2]", "result": "> 10", "unit": "µM"}]}
{"smiles": "Cc1cnc(-c2ccc(Cl)cc2)n1Cc1ccccc1OCCC[C@@H](C)CC(=O)O", "values": [{"measurement": "EC50", "setting": "[1]", "result": "> 100", "unit": "µM"}, {"measurement": "AUC", "setting": "[8]", "result": 752, "unit": "ng·h/mL"}, {"measurement": "half-life", "setting": "[9]", "result": 84, "unit": "min"}, {"measurement": "EC50", "setting": "[5]", "result": 0.0055, "unit": "µM"}, {"measurement": "EC50", "setting": "[2]", "result": "> 10", "unit": "µM"}]}
{"smiles": "C/C(=C\\COc1ccccc1Cc1sc(C)nc1-c1ccc(-c2ccco2)cc1)CCC(=O)O", "values": [{"measurement": "half-life", "setting": "[3]", "result": 48, "unit": "min"}, {"measurement": "EC50", "setting": "[1]", "result": 7.25, "unit": "µM"}, {"measurement": "Ratio EC50", "setting": "[4]", "result": ">1000"}, {"measurement": "EC50", "setting": "[5]", "result": 0.0095, "unit": "µM"}, {"measurement": "AUC", "setting": "[6]", "result": 900, "unit": "ng·h/mL"}, {"measurement": "clearance", "setting": "[7]", "result": 55, "unit": "mL/min/kg"}, {"measurement": "EC50", "setting": "[2]", "result": "> 10", "unit": "µM"}]}
